Reference: patent US5492905A, “1-bolizazepin-2,5-diones” (Zeneca Limited, priority 1992, dated 1996)

Experiments:
[1] = test system: neuronal damage in the hippocampus; assay: gerbil ischemic model (bilateral carotid occlusion), neuroprotection; format: in vivo, Mongolian gerbils; conditions: dosed twice with 20 mg/kg body weight ip (e.g. 45 min before and 5 min after occlusion); 10 min occlusion; brains taken after 4 days
Description: When testing in vivo using the gerbil ischemic model, adult female Mongolian gerbils (50-70 g) are anesthetized with 2 to 3% halothane. The bilateral common carotid arteries at the neck are exposed and occluded with microaneurysm clips. After 10 min (unless specified), the clips are removed and the blood flow through the carotid arteries is restored and the skin is sutured. Test compounds are administered intraperitoneally both pre- and post-occlusion, for example 45 minutes before and 5 minutes after occlusion of the carotid arteries. Sham-operated animals are treated in the same manner except that the arteries are not clamped. Gross behavioral observations along with motor activity are recorded for 2 hr on the first (24 hr) day following the occlusion. After 4 days, subjects are sacrificed (decapitation), brains are removed, fixed, sectioned and stained with hematoxylin/eosin and cresyl violet.
The brain sections are rated for neuronal damage in the hippocampus using the following rating scale:
1=slight damage (up to 25%) - restricted CA1/subiculum border
2=moderate damage (up to 50%) - obvious damage, restricted to less than half of CA1 field
3=marked damage (up to 75%) - involving greater than half of CA1 field
4=damage extending beyond CA1 field
Results can be reported as the percentage of neuroprotection afforded by a particular dose and dosing regimen.
Sections (7 micron) are evaluated from each brain. Occasionally, asymmetrical damage may be noted and the rating assigned is the average score of the two sides. The average brain damage rating score for each group is recorded, and the damage scores of the drug treated group are compared to the vehicle-treated group using Wilcoxcon-Rank Sum test.

[2] = biological target: T1, glycine receptor of the NMDA receptor complex (Rattus norvegicus, UniProt P35439); assay: [3H]-glycine binding assay; set-up: species or system Sprague-Dawley rats; conditions: 20 nM [3H]-glycine, rat neuronal synaptic membranes (cortices and hippocampi), pH 7.1, 30 min, 4° C.
T1 construct: neuronal synaptic membranes are prepared from adult (about 250 g) male Sprague-Dawley rats; from tissue; host or cells: synaptic membranes of cortices and hippocampi of adult male Sprague-Dawley rats
Description: The actions of compounds of formula I as antagonists at the glycine receptor of the NMDA receptor complex can be shown by standard tests such as the [^3 H]-glycine binding assay, by functional assays in vitro such as tests for measuring glutamate evoked contractions of the guinea pig ileum, and by tests in vivo such as ischemia induced by carotid occlusion in the gerbil model.
In the [^3 H]-glycine binding assay, neuronal synaptic membranes are prepared from adult (about 250 g) male Sprague-Dawley rats. Freshly dissected cortices and hippocampi are homogenized in 0.32M sucrose (110 mg/mL). Synaptosomes are isolated by centrifugation (1000 xg, 10 min), the supernatant is pelleted (20,000 xg, 20 min) and resuspended in double-distilled water. The suspension was centrifuged for 20 minutes at 8,000 xg. The resulting supernatant and buffy coat are washed twice (48,000 xg, 10 mins, resuspension in double-deionized water). The final pellet is quickly frozen (dry ice ethanol bath) under double-deionized water and stored at -70 ° C. […]
For [^3 H]-glycine binding at the N-methyl-D-aspartate receptor, 20 nM [^3 H]-glycine (40-60 Ci/mmol, New England Nuclear, Boston, Mass.) is incubated with the membranes suspended in 50 mM tris (hydroxymethyl)aminomethane citrate, pH 7.1 for 30 minutes at 4° C. […] Radioactivity is estimated by liquid scintillation counting. […]

IC50 [2] [µM]	SMILES	neuroprotection (relative to sham-operated control) [1]
	O=c1[nH]c2cc(Cl)ccc2c(=O)cc1NCCc1ccccc1 [Example 6, 8-Chloro-2,5-dioxo-3-phenethylamino-2,5-dihydro-1H-benz[b]azepine]	about 43%
~470	O=c1[nH]c2cc(Cl)ccc2c(=O)cc1N1CCCC1 [Example 12]	about 62%
~43	O=c1[nH]c2cc(Cl)ccc2c(=O)cc1NC[C@H](O)[C@@H](O)[C@H](O)[C@H](O)CO [Example 19, 8-Chloro-3-(D-glucamino)-2,5-dioxo-2,5-dihydro-1H-benz[b]azepine]	about 80%
